Laboratory results as given in paper PMC2361176, “Inhibitory effects of retinoic acid metabolism blocking agents (RAMBAs) on the growth of human prostate cancer cells and LNCaP prostate tumour xenografts in SCID mice” (British Journal of Cancer, 2006).
Entries after “also recorded” stand apart in the source; their conditions may differ.

Assays:
CYP26 [1] = target: T1, CYP26 (Homo sapiens, UniProt O43174); test: Cellular CYP26 assay: inhibition of ATRA metabolism in intact LNCaP cells; type: cell-based; conditions: intact LNCaP cells pretreated with 1 μM ATRA; [11,12-3H]-ATRA substrate; HPLC
T1 construct: LNCaP cells were incubated with 1 μM ATRA for 24 h to induce the CYP26 enzyme; endogenous in cells; host or cells: LNCaP human prostate cancer cells, pre-treated with 1 μM ATRA
T1 sequence (O43174 1-497): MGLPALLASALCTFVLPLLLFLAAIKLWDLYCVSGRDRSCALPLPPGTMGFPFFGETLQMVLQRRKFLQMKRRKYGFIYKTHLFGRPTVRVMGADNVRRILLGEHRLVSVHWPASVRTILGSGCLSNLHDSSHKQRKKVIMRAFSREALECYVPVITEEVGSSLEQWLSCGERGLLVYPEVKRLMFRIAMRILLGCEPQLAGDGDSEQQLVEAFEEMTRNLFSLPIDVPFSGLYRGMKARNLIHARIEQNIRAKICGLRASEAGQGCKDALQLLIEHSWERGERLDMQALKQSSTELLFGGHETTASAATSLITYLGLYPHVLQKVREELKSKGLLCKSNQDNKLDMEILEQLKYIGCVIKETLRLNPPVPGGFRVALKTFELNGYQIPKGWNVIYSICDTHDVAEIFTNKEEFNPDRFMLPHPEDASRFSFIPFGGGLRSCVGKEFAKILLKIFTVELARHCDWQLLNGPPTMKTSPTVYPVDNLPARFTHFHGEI
Procedure: Following ATRA treatment, the LNCaP cells were incubated with 0.1 or 0.8 μM [11,12-^3H]-ATRA (PerkinElmer Life and Analytical Sciences, Inc., Boston, MA, USA) for 5 h. Following the 5 h incubation, the medium was collected and the cells were trypsinised and collected.

LNCaP cells [2] = test: WST-1 cell viability / LNCaP cell growth inhibition assay; type: cell-based; conditions: Homo sapiens, 144 h, 6 days, read-out: Cell growth inhibition, agents alone, IC50
Procedure: To measure cell viability, 24-well plates were coated with a 0.05% poly-L-lysine solution for 30 min. The wells were then washed with sterilised dH2O. LNCaP cells (1 × 10^4) were seeded in the plates and maintained in RPMI 1640 medium (Gibco-Invitrogen, Carlsbad, CA, USA). The cells were allowed to attach for 36 h. After attachment, fresh media was added and the cells were treated with a concentration range of either ATRA or each of the RAMBAs for 6 days. The media was changed every 3 days. On the day the assay was performed, the media was removed and 1 ml of a stock solution of WST-1 (4-[3-(4-iodophenyl)-2-(4-nitrophenyl)-2H-5-tetrazolio]-1,3-benzene disulfonate) cell proliferation reagent (Boehringer Mannheim, Indianapolis, IN, USA), diluted 1 : 10 in RPMI 1640 medium (without FBS), was added to each well. The plates were incubated at 37°C for 3 h. The media was then removed and 500 μl of DMSO was added and agitated vigorously for 5 min. The slightly red tetrazolium salt WST-1 is reduced to a dark red, water-soluble formazan product by mitochondrial dehydrogenase from living cells, which gives absorbance at a wavelength of 450 nm.

LNCaP cells [3] = test: Cell-cycle analysis (propidium iodide, FACScan); type: cell-based, human; conditions: 5 μM, 6 days; for Sub-G1 (%): apoptotic cells, control 9.02; for G2/M (%): control 2.20; for S (%): control 15.01; for G0/G1 (%): control 82.78
Procedure: LNCaP cells were treated with 1 or 5 μM of ATRA or each of the RAMBAs for 6 days. The cells were trypsinised and washed twice in PBS (Life Technologies, Grand Island, NY, USA). The cells were fixed by adding 70% ethanol and stored at −20°C until staining. The cells were washed twice in PBS. A volume of 1 ml of a propidium iodide (PI) solution (50 μg ml^−1 in PBS) and 500 μl of an RNase stock solution (100 μg ml^−1) were added to the cells and incubated for 1 h in the dark. Approximately 10^4 stained cells were then analysed by flow cytometry (Becton Dickenson FACScan, Franklin Lakes, NJ, USA). The percentages of cells in G0/G1, S, and G2/M phases of the cell cycle as well as percentage of apoptotic cells (sub G0/G1) were determined using MODFIT LT software (Verity Software House, San Jose, CA, USA). The percentages of cells in G0/G1, S, and G2/M phases of the cell cycle were obtained from diploid cells in the sample and the percentage of apoptotic cells (sub G0/G1) was obtained from total cells minus the debris.

[4] = system: MCF-7 human breast cancer model; design: method as in Patel et al, 2004, 2006; conditions: ref Patel et al, 2004, 2006; cited from earlier work
Bad = test: Western-blot analysis of Bad in LNCaP cells; type: cell-based, human; conditions: 5 and 10 μM, P<0.05
Procedure: The Western-blot protocol described for cytokeratins 8/18 was followed with some exceptions. Cell lysates (50 μg) were separated on a 15% SDS–PAGE gel. All washing was performed using TBS containing 1% Tween 20 (TBS-T). Blocking was performed using 5% milk in TBS-T. Incubations were performed using rabbit monoclonal IgG antibody to Bad and Bcl-2 (1 : 1000), as well as horseradish peroxidase-linked anti-rabbit IgG antibodies (1 : 2000) (Cell Signaling Technology, Beverly, MA, USA).

[5] = Tolerability and body weight in the LNCaP xenograft study; type: in vivo; conditions: 0.033 mmol kg−1 once daily
Procedure: All animal studies were performed according to the guidelines and approval of the Animal Care Committee of the University of Maryland School of Medicine, and were consistent with United Kingdom Coordinating Committee on Cancer Research guidelines for the welfare of animals in experimental neoplasia. The procedure was modified from [Grigoryev et al (1999)]. Briefly, LNCaP cells were trypsinised, counted, and suspended in Matrigel (2 × 10^7 cells ml^−1) (Fisher Scientific International, Inc., Hampton, NH, USA). Male SCID mice of 4–6 weeks of age were obtained from the National Cancer Institute (Frederick, MD, USA). Each mouse was inoculated s.c. with 0.1 ml of the cell suspension at two sites in the flank. The size of the tumours was determined by measuring the tumour volumes using calipers. Tumour volumes were calculated using the formula V=4/3 × π × r1^2 × r2(r1<r2). The tumours were allowed to develop to approximately 100 mm^3 before treatment. […] Tumour volumes were measured twice weekly and weights of animals were taken weekly after the initiation of treatment. The mice were subjected to 6 weeks of treatment. The mice were then killed and the tumours were excised, weighed, and stored at −80°C until analysis. Additionally, the plasma was collected with 50 IU of heparin and stored at −80°C until analysis.

CYP26 [6] = target: T1, CYP26; test: Cellular microsomal CYP26 assay (ATRA metabolism of microsomes prepared from T47D cells); type: biochemical
T47D cells = system: T47D cells; design: method as in Patel et al, 2004; conditions: cellular assay; ref Patel et al, 2004; read-out: IC50, inhibition of ATRA metabolism in T47D cells; cited from earlier work

Structure (SMILES) | IC50 (CYP26 [1]) [nM] | IC50 (LNCaP cells [2]) [nM] | Sub-G1 (%) (LNCaP cells [3]) | G2/M (%) (LNCaP cells [3]) | S (%) (LNCaP cells [3]) | G0/G1 (%) (LNCaP cells [3]) | antitumour efficacy [4] | Bad expression compared with control (Bad) | reduction of body weights compared to control ([5]; data not shown) [%] | fold higher potency in microsomes compared to the cellular IC50 value (CYP26 [6]; microsomal vs cellular IC50) [fold] | IC50 (CYP26 [6]; microsomes, read-out: IC50, inhibition of ATRA metabolism of microsomes prepared from T47D cells previously exposed to ATRA) [nM] | toxicity to the mice [5] | IC50 (T47D cells) [nM]
CC1=C(/C=C/C(C)=C/C=C/C(C)=C/C(=O)O)C(C)(C)CCC1n1ccnc1 (stereo not drawn) [VN/14-1] | 6.5 ± 1.5 | 10000 | 17.88 | 10.15 | 7.26 | 82.59 | excellent antitumour efficacy | – | – | – | – | – | –
CC1=C(/C=C/C(C)=C/C=C/C(C)=C\C(=O)Nc2ccc(O)cc2)C(C)(C)CCC1n1ccnc1 (stereo not drawn) [VN/69-1] | 90 ± 12.5 | 5000 | 13.39 | 6.20 | 11.14 | 82.66 | – | – | – | – | – | – | –
CC1=C(/C=C/C(C)=C/C=C/C(C)=C/C(=O)Nc2ccc(O)cc2)C(C)(C)CCC1n1ccnc1 (stereo not drawn) [VN/66-1] | 62.5 ± 12.5 | 4500 | 14.49 | 5.07 | 11.14 | 83.80 | – | – | – | – | – | – | –
CC1=C(/C=C/C(C)=C/C=C/C(C)=C/C(=O)O)C(C)(C)CCC1 [ATRA, all-trans-retinoic acid, reference compound] | – | 4300 | 13.64 | 12.42 | 9.84 | 77.74 | – | significant increase | ~25 | – | – | – | –
CC1=C(/C=C/C(C)=C/C=C/C(C)=C/C(=O)n2ccnc2)C(C)(C)CCC1n1ccnc1 (stereo not drawn) [VN/50-1] | 90 ± 10 | 6000 | 17.67 | 7.30 | 11.38 | 81.33 | – | – | – | ~13 | 7 ± 1.2 | very toxic; also recorded: toxic | 10
